Experimental data taken from ChEMBL document CHEMBL6114970, “Development of carbazole-based molecules for inhibition of mutant hSOD1 protein aggregation in Amyotrophic Lateral Sclerosis” (Bioorg Med Chem, 2025).
Blank lines part the entries; values can stand above or below the molecule they belong to. Active and inactive are the calls of the source. The rule behind the calls is not given here.

Experiments:
[1] = species on record: Homo sapiens; assay: Inhibition of TCEP-treated human SOD1 A4V mutant aggregation at 50 uM measured after 24 hrs by thioflavin-T fluorescence assay relative to control
[2] = species on record: Homo sapiens; assay: Inhibition of TCEP-treated human SOD1 G85R mutant aggregation at 50 uM measured after 24 hrs by thioflavin-T fluorescence assay relative to control
[3] = species on record: Homo sapiens; assay: Inhibition of TCEP-treated human SOD1 G93A mutant aggregation at 50 uM measured after 24 hrs by thioflavin-T fluorescence assay relative to control
[4] = (§1) Inhibition of TCEP-treated human SOD1 A4V mutant aggregation measured after 24 hrs by thioflavin-T fluorescence assay
[5] = species on record: Homo sapiens; assay: as §1
[6] = (§2) Inhibition of TCEP-treated human SOD1 G85R mutant aggregation measured after 24 hrs by thioflavin-T fluorescence assay
[7] = species on record: Homo sapiens; assay: as §2
[8] = (§3) Inhibition of TCEP-treated human SOD1 G93A mutant aggregation measured after 24 hrs by thioflavin-T fluorescence assay
[9] = species on record: Homo sapiens; assay: as §3
[10] = species on record: Homo sapiens; assay: Inhibition of TCEP-treated human SOD1 A4V mutant aggregation assessed as formation of few slender fibrils at 50 uM measured after 24 hrs by 1% uranyl acetate staining based transmission electron microscopy
[11] = species on record: Homo sapiens; assay: Inhibition of TCEP-treated human SOD1 G85R mutant aggregation assessed as formation of few slender fibrils at 50 uM measured after 24 hrs by 1% uranyl acetate staining based transmission electron microscopy
[12] = species on record: Homo sapiens; assay: Inhibition of TCEP-treated human SOD1 G93A mutant aggregation assessed as formation of few slender fibrils at 50 uM measured after 24 hrs by 1% uranyl acetate staining based transmission electron microscopy
[13] = species on record: Homo sapiens; assay: Inhibition of TCEP-treated human SOD1 A4V mutant aggregation assessed as size of protein at 50 uM measured after 24 hrs at 37 deg C by dynamic light scattering analysis (reference value: 154.4 nm)
[14] = species on record: Homo sapiens; assay: Inhibition of TCEP-treated human SOD1 G85R mutant aggregation assessed as size of protein at 50 uM measured after 24 hrs at 37 deg C by dynamic light scattering analysis (reference value: 151.1 nm)
[15] = species on record: Homo sapiens; assay: Inhibition of TCEP-treated human SOD1 G93A mutant aggregation assessed as size of protein at 50 uM measured after 24 hrs at 37 deg C by dynamic light scattering analysis (reference value: 84.38 nm)
[16] = tested on: N2a; assay: Cytotoxicity against mouse Neuro2a cells over expressing hSOD1 G85R mutant assessed as reduction in cell viability up to 10 uM measured after 48 hrs by MTT assay; assay type: toxicity, cell-based
[17] = tested on: N2a; assay: Cytotoxicity against mouse Neuro2a cells over expressing hSOD1 G85R mutant assessed as reduction in cell viability at 25 uM measured after 48 hrs by MTT assay; assay type: toxicity, cell-based
[18] = tested on: N2a; assay: Protection against MG132-induced SOD1 aggregation-associated cytotoxicity in mouse Neuro2a cells over expressing hSOD1 G85R mutant assessed as increase in cell viability at 1 uM preincubated for 24 hrs followed by MG132 addition and measured after 24 hrs by MTT assay; assay type: functional, cell-based; settings: time 48.0 hrs
[19] = tested on: N2a; assay: Protection against MG132-induced SOD1 aggregation-associated cytotoxicity in mouse Neuro2a cells over expressing hSOD1 G85R mutant assessed as cell viability at 5 to 10 uM preincubated for 24 hrs followed by MG132 addition and measured after 24 hrs by MTT assay (reference value: 45%); assay type: functional; settings: dose 5-10 µM, time 48 hrs
[20] = tested on: N2a; assay: Protection against MG132-induced SOD1 aggregation-associated cytotoxicity in mouse Neuro2a cells over expressing hSOD1 G85R mutant assessed as restoration of cell viability by phase contrast microscopy; assay type: functional, cell-based
[21] = tested on: N2a; assay: Protection against MG132-induced SOD1 aggregation-associated cytotoxicity in mouse Neuro2a cells over expressing hSOD1 G85R mutant assessed as restoration of normal morphology by phase contrast microscopy; assay type: functional, cell-based
[22] = tested on: N2a; assay: (§4) Protection against MG132-induced SOD1 aggregation-associated apoptosis in mouse Neuro2a cells over expressing hSOD1 G85R mutant assessed as early apoptotic cells preincubated for 24 hrs followed by MG132 addition and measured after 24 hrs by Annexin V-APC/propidium iodide staining based flow cytometry (reference value: 1.41 %); assay type: functional; settings: time 48 hrs
[23] = tested on: N2a; assay: as §4, with “late” for “early”, “20.93 to 23.01” for “1.41”; assay type: functional; settings: time 48 hrs
[24] = tested on: N2a; assay: as §4, with “necrotic” for “early apoptotic”, “2.23” for “1.41”; assay type: functional; settings: time 48 hrs
[25] = tested on: N2a; assay: Protection against MG132-induced SOD1 aggregation-associated apoptosis in mouse Neuro2a cells over expressing hSOD1 G85R mutant assessed as upregulation of Bcl-2 expression preincubated for 24 hrs followed by MG132 addition and measured after 24 hrs by Western blot analysis; assay type: functional, cell-based; settings: time 48.0 hrs
[26] = tested on: N2a; assay: Protection against MG132-induced SOD1 aggregation-associated apoptosis in mouse Neuro2a cells over expressing hSOD1 G85R mutant assessed as upregulation of Xiap expression preincubated for 24 hrs followed by MG132 addition and measured after 24 hrs by Western blot analysis; assay type: functional, cell-based; settings: time 48.0 hrs
[27] = tested on: N2a; assay: Protection against MG132-induced SOD1 aggregation-associated oxidative stress in mouse Neuro2a cells over expressing hSOD1 G85R mutant assessed as reduction in ROS level at 10 uM preincubated for 24 hrs followed by MG132 addition and measured after 24 hrs by H2DCFDA dye based flow cytometry; assay type: functional, cell-based; settings: time 48.0 hrs

inhibition [1]: 60% | inhibition [2]: 64.4% | inhibition [3]: 72.6%
Structure (SMILES): CCn1c2ccccc2c2cc(NC(=O)NNC(=S)Nc3ccc([N+](=O)[O-])cc3)ccc21

inhibition [1]: 47.1% | inhibition [2]: 63.8% | inhibition [3]: 73.8%
Structure (SMILES): CCn1c2ccccc2c2cc(NC(=O)NNC(=O)Nc3ccc(OC(F)(F)F)cc3)ccc21

inhibition [1]: 58.8% | inhibition [2]: 70.6% | inhibition [3]: 72.5%
Structure (SMILES): CCn1c2ccccc2c2cc(NC(=O)NNC(=S)Nc3ccc(OC)cc3)ccc21

inhibition [1]: 61.1% | inhibition [2]: 58.3% | inhibition [3]: 76.4%
Structure (SMILES): CCn1c2ccccc2c2cc(NC(=O)NNC(=S)Nc3ccc(Cl)cc3)ccc21

inhibition [1]: 58.7% | inhibition [2]: 42.8% | IC50 [4]: 40.9 µM | inhibition [5]: Dose-dependent-effect | IC50 [6]: 64.1 µM | inhibition [7]: Dose-dependent-effect | IC50 [8]: 32.3 µM | inhibition [9]: Dose-dependent-effect | inhibition [10]: Active | inhibition [11]: Active | inhibition [12]: Active | Activity [13]: 52.1 nm | Activity [14]: 40.2 nm | Activity [15]: 31.7 nm
Structure (SMILES): COc1cc(/C=C/C(=O)CC(=O)/C=C/c2ccc(O)c(OC)c2)ccc1O [CURCUMIN]
Activity [16]: Non-toxic | Activity [17]: Toxic | Activity [18]: inactive | Activity [19]: 60% | Activity [20]: Active | Activity [21]: Active | Activity [22]: 0.97% | Activity [23]: 8.19% | Activity [24]: 2.58% | Activity [25]: Active | Activity [26]: Active | Activity [27]: Active; Significant Effect Observed

inhibition [1]: 46.9% | inhibition [2]: 65.9% | inhibition [3]: 63.4%
Structure (SMILES): CCn1c2ccccc2c2cc(NC(=O)NNC(=O)Nc3ccccc3)ccc21

inhibition [1]: 54.2% | inhibition [2]: 56.4% | inhibition [3]: 69.8%
Structure (SMILES): CCn1c2ccccc2c2cc(NC(=O)NNC(=S)NCc3ccccc3)ccc21

inhibition [1]: 71.3% | inhibition [2]: 74.8% | inhibition [3]: 88.3% | IC50 [4]: 32.4 µM | inhibition [5]: Dose-dependent-effect | IC50 [6]: 31.3 µM | inhibition [7]: Dose-dependent-effect | IC50 [8]: 26 µM | inhibition [9]: Dose-dependent-effect | Activity [13]: 44.6 nm | Activity [14]: 36.3 nm | Activity [15]: 25.2 nm
Structure (SMILES): CCn1c2ccccc2c2cc(NC(=O)NNC(=S)Nc3ccccc3)ccc21
inhibition [10]: Active; Displayed Better Reduction In Aggregate Formation Than Curcumin | inhibition [11]: Active; Displayed Better Reduction In Aggregate Formation Than Curcumin | inhibition [12]: Active; Displayed Better Reduction In Aggregate Formation Than Curcumin | Activity [16]: Non-toxic | Activity [17]: Toxic | Activity [18]: inactive | Activity [19]: 60% | Activity [20]: Active | Activity [21]: Active | Activity [22]: 1.04% | Activity [23]: 8.26% | Activity [24]: 2.64% | Activity [25]: Active | Activity [26]: Active | Activity [27]: Active; Significant Effect Observed

inhibition [1]: 31.9% | inhibition [2]: 70.7% | inhibition [3]: 25.1%
Structure (SMILES): CCn1c2ccccc2c2cc(NC(=O)NNC(=O)NCc3ccccc3)ccc21

inhibition [1]: 40.6% | inhibition [2]: 38.2% | inhibition [3]: 61.8%
Structure (SMILES): CCn1c2ccccc2c2cc(NC(=O)NNC(=O)Nc3ccc(OC)cc3)ccc21

inhibition [1]: 62.8% | inhibition [2]: 70% | inhibition [3]: 44.5%
Structure (SMILES): CCn1c2ccccc2c2cc(NC(=O)NNC(=O)NCCc3ccccc3)ccc21

inhibition [1]: 46.1% | inhibition [2]: 43.4% | inhibition [3]: 71.9%
Structure (SMILES): CCn1c2ccccc2c2cc(NC(=O)NNC(=O)Nc3ccc(F)cc3)ccc21

inhibition [1]: 69.7% | inhibition [2]: 63.2% | inhibition [3]: 72.3%
Structure (SMILES): CCn1c2ccccc2c2cc(NC(=O)NNC(=S)Nc3ccc(OC(F)(F)F)cc3)ccc21

inhibition [1]: 76.2% | inhibition [2]: 76.8% | inhibition [3]: 80.7% | IC50 [4]: 28.1 µM | inhibition [5]: Dose-dependent-effect | IC50 [6]: 23.4 µM | inhibition [7]: Dose-dependent-effect | IC50 [8]: 29.1 µM | inhibition [9]: Dose-dependent-effect | Activity [13]: 27.7 nm | Activity [14]: 26.4 nm | Activity [15]: 21.7 nm
Structure (SMILES): CCn1c2ccccc2c2cc(NC(=O)NNC(=S)Nc3ccc(F)cc3)ccc21
inhibition [10]: Active; Displayed Better Reduction In Aggregate Formation Than Curcumin | inhibition [11]: Active; Displayed Better Reduction In Aggregate Formation Than Curcumin | inhibition [12]: Active; Displayed Better Reduction In Aggregate Formation Than Curcumin | Activity [16]: Non-toxic | Activity [17]: Toxic | Activity [18]: inactive | Activity [19]: 60% | Activity [20]: Active | Activity [21]: Active | Activity [22]: 1.19% | Activity [23]: 5.52% | Activity [24]: 2.13% | Activity [25]: Active | Activity [26]: Active | Activity [27]: Active; Showed Better Reduction Compared To Curcumin

inhibition [1]: 55.3% | inhibition [2]: 43.1% | inhibition [3]: 48.2%
Structure (SMILES): CCn1c2ccccc2c2cc(NC(=O)NNC(=O)Nc3ccc([N+](=O)[O-])cc3)ccc21

inhibition [1]: 9.88% | inhibition [2]: inactive | inhibition [3]: inactive
Structure (SMILES): Nc1nc2ccc(OC(F)(F)F)cc2s1

inhibition [1]: 68.5% | inhibition [2]: 66.1% | inhibition [3]: 65.4%
Structure (SMILES): CCn1c2ccccc2c2cc(NC(=O)NNC(=S)NCCc3ccccc3)ccc21

inhibition [1]: 59.3% | inhibition [2]: 63.3% | inhibition [3]: 33.9%
Structure (SMILES): CCn1c2ccccc2c2cc(NC(=O)NNC(=O)Nc3ccc(Cl)cc3)ccc21
